Patent US20120052528A1, “METHOD FOR PRODUCING SELECTIVE MEDIUM AND USE THEREOF” (THE UNIVERSITY OF TOKYO, priority 2009, published 2012)

Tests used:
[1] = test system: filamentous bacterial cells; assay: Limited search of carbon sources: colony formation of filamentous bacterial cells from a soil suspension on carbon-source agar medium; settings: soil suspension smeared on agar medium with the carbon source, 30° C., 5 days; relative value, carbon source-free medium = 100%
Procedure: (§1) Any carbon source, crystal violet (antibiotic) and agar are mixed with basic medium components so as to prepare an agar medium. A soil suspension (100 p1) prepared by suspending of soil for plant cultivation (1 g) in water (100 ml) is smeared (repeatedly 3 times) on the medium, followed by culture at 30° C. for 5 days. The numbers of colonies of filamentous bacterial cells and other bacterial cells that are formed on the medium are counted. Each counted value is represented as a relative value (%) determined based on the number of colonies formed on a “carbon source-free” medium (100%). If the degree of colony formation is less than 30 (for filamentous bacterial cells) and is less than 60 (for bacterial cells), the carbon source is selected as a carbon source having high growth inhibitory effects. The smaller value indicates the smaller number of contaminating germs (filamentous bacteria and other bacteria) that assimilate the carbon source.

[2] = test system: contaminating germs in soil; assay: Limited search of carbon sources: assimilation by contaminating germs in soil; type: cell-based; settings: conclusion from Table 5
other bacterial cells = assay: Limited search of carbon sources: colony formation of other bacterial cells from a soil suspension on carbon-source agar medium; settings: soil suspension smeared on agar medium with the carbon source, 30° C., 5 days; relative value, carbon source-free medium = 100%
Procedure: as §1

Molecule | Filamentous bacterial cells Average number of grown colonies ± standard error [1] [%] | likelihood of assimilation of the carbon source by contaminating germs in soil [2] | Other bacterial cells Average number of grown colonies ± standard error (other bacterial cells) [%]
O=C[C@@H](O)[C@H](O)[C@H](O)CO [Arabinose] | 100 ± 0 | less likely to be assimilated | 51 ± 2
N=C(N)NCCC[C@H](N)C(=O)O [Arginine] | 19 ± 8 | less likely to be assimilated | 99 ± 3
N[C@@H](CC(=O)O)C(=O)O [Aspartic acid] | 11 ± 9 | less likely to be assimilated | 32 ± 3
O=C[C@H](O)[C@@H](O)[C@H](O[C@@H]1O[C@H](CO)[C@@H](O)[C@H](O)[C@H]1O)[C@H](O)CO [Cellobiose] | 42 ± 18 | – | 76 ± 5
O=C(CO)[C@@H](O)[C@H](O)[C@H](O)CO [Fructose] | 100 ± 0 | – | 84 ± 3
N[C@@H](CCC(=O)O)C(=O)O [Glutamic acid] | 83 ± 14 | – | 66 ± 6
NC(=O)CC[C@H](N)C(=O)O [Glutamine] | 100 ± 0 | – | 66 ± 4
NCC(=O)O [Glycine] | 72 ± 2 | – | 69 ± 5
N[C@@H](Cc1c[nH]cn1)C(=O)O [Histidine] | 203 ± 32 | – | 62 ± 2
O[C@H]1[C@H](O)[C@@H](O)[C@H](O)[C@@H](O)[C@H]1O [Inositol] | 0 ± 0 | less likely to be assimilated | 57 ± 7
CC[C@H](C)[C@H](N)C(=O)O [Isoleucine] | 28 ± 2 | less likely to be assimilated | 44 ± 2
OC[C@H]1O[C@@H](O[C@H]2[C@H](O)[C@@H](O)C(O)O[C@@H]2CO)[C@H](O)[C@@H](O)[C@H]1O (stereo partly drawn) [Lactose] | 128 ± 2 | – | 77 ± 4
CC(C)C[C@H](N)C(=O)O [Leucine] | 67 ± 141 | less likely to be assimilated | 42 ± 3
NCCCC[C@H](N)C(=O)O [Lysine] | 33 ± 14 | less likely to be assimilated | 56 ± 5
OC[C@@H](O)[C@@H](O)[C@H](O)[C@H](O)CO [Mannitol] | 27 ± 17 | less likely to be assimilated | 54 ± 4
CSCC[C@H](N)C(=O)O [Methionine] | 38 ± 16 | less likely to be assimilated | 38 ± 4

Molecule | Filamentous bacterial cells Average number of grown colonies ± standard error [1] [%] | likelihood of assimilation of the carbon source by contaminating germs in soil [2] | Other bacterial cells Average number of grown colonies ± standard error (other bacterial cells) [%]
N[C@@H](Cc1ccccc1)C(=O)O [Phenylalanine] | 47 ± 19 | less likely to be assimilated | 36 ± 6
O=C(O)[C@@H]1CCCN1 [Proline] | 11 ± 9 | less likely to be assimilated | 66 ± 4
OC[C@@H](O)[C@@H](O)[C@@H](O)CO [Ribitol] | 139 ± 11 | – | 67 ± 2
N[C@@H](CO)C(=O)O [Serine] | 131 ± 16 | – | 87 ± 3
O=C([O-])CCCCC(=O)[O-].[Na+].[Na+] [Sodium adipate] | 36 ± 18 | – | 122 ± 10
OC[C@@H](O)[C@@H](O)[C@H](O)[C@@H](O)CO [Sorbitol] | 128 ± 2 | – | 63 ± 5
O=C(CO)[C@H](O)[C@@H](O)[C@H](O)CO [Sorbose] | 128 ± 2 | – | 68 ± 3
OC[C@H]1O[C@@](CO)(O[C@H]2O[C@H](CO)[C@@H](O)[C@H](O)[C@H]2O)[C@@H](O)[C@@H]1O [Sucrose] | 211 ± 15 | – | 71 ± 4
O=C(O)C(O)C(O)C(=O)O (stereo not drawn) [Tartaric acid] | 64 ± 6 | – | 81 ± 3
C[C@@H](O)[C@H](N)C(=O)O [Threonine] | 0 ± 0 | less likely to be assimilated | 59 ± 5
OC[C@H]1O[C@H](O[C@H]2O[C@H](CO)[C@@H](O)[C@H](O)[C@H]2O)[C@H](O)[C@@H](O)[C@@H]1O [Trehalose] | 156 ± 5 | less likely to be assimilated | 51 ± 7
N[C@@H](Cc1c[nH]c2ccccc12)C(=O)O [Tryptophan] | 167 ± 18 | – | 100 ± 5
N[C@@H](Cc1ccc(O)cc1)C(=O)O [Tyrosine] | 81 ± 39 | less likely to be assimilated | 55 ± 4
CC(C)[C@H](N)C(=O)O [Valine] | 19 ± 8 | less likely to be assimilated | 38 ± 5
Polygalacturonic acid | 8 ± 7 | less likely to be assimilated | 19 ± 2
